From PMC9030254, “Target Hopping from Protein Kinases to PXR: Identification of Small-Molecule Protein Kinase Inhibitors as Selective Modulators of Pregnane X Receptor from TüKIC Library” (Cells, 2022)

Tests used:
Experiment in all cases: Kinase profiling
Format in all cases: biochemical
[1] = target: T1, RET (Homo sapiens, UniProt P07949)
T1 construct: purchased ProQinase (Freiburg, Germany)
Description: (§1) The analysis was performed by ProQinase (Freiburg, Germany).

[2] = target: T2, PRKG1 (Homo sapiens, UniProt Q13976)
T2 construct: purchased ProQinase (Freiburg, Germany)
T2 sequence (Q13976 1-671): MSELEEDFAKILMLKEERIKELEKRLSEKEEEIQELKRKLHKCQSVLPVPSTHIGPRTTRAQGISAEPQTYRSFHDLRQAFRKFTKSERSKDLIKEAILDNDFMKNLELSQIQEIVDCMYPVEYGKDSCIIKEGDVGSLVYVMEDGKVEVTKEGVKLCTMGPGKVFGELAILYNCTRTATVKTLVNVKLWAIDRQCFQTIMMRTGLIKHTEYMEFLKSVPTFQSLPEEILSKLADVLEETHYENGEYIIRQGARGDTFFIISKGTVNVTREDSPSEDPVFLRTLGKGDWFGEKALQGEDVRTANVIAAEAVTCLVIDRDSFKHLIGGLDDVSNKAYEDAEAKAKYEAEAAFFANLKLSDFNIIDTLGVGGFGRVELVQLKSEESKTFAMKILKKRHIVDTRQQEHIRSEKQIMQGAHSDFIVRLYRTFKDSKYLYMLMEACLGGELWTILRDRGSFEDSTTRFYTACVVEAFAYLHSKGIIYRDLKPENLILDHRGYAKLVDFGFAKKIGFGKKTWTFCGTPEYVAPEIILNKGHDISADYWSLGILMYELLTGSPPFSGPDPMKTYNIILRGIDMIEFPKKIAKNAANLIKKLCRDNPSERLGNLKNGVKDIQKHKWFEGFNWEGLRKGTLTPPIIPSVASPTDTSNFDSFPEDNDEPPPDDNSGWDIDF
Description: as §1

[3] = target: T3, DYRK2 (Homo sapiens, UniProt Q92630)
T3 construct: purchased ProQinase (Freiburg, Germany)
T3 sequence (Q92630 1-601): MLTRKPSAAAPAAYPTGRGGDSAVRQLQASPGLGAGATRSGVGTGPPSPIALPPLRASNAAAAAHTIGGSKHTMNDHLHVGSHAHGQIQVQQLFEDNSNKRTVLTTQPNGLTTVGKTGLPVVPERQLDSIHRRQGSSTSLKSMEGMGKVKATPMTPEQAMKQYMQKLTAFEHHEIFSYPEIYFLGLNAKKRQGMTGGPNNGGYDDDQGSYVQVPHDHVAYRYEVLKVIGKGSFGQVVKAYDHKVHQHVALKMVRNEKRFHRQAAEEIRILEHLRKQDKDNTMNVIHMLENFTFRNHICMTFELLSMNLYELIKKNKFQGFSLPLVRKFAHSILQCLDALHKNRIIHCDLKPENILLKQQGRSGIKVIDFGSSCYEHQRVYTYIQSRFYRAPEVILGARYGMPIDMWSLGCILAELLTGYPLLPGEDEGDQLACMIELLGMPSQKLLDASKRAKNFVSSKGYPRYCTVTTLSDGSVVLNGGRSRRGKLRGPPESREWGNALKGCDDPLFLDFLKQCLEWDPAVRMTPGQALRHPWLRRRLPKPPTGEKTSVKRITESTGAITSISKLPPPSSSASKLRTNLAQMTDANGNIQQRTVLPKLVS
Description: as §1

[4] = target: T4, CDK2/CycE1 (Homo sapiens, UniProt P24941)
T4 construct: purchased ProQinase (Freiburg, Germany)
Description: as §1

[5] = target: T5, AuroraB (Homo sapiens, UniProt Q96GD4)
T5 construct: purchased ProQinase (Freiburg, Germany)
T5 sequence (Q96GD4 whole entry): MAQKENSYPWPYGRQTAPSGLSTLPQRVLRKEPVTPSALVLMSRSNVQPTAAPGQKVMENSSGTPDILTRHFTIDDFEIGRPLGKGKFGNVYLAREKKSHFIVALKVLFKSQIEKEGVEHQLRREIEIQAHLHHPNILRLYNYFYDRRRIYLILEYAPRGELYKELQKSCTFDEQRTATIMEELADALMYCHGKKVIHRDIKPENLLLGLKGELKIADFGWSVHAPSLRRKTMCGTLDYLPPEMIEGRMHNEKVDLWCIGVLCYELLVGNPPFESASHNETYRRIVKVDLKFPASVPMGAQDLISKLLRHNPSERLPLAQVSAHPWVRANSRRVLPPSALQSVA
Description: as §1

[6] = target: T6, PIM3 (Homo sapiens, UniProt Q86V86)
T6 construct: purchased ProQinase (Freiburg, Germany)
Description: as §1

[7] = target: T7, CDK12/CycK (Homo sapiens, UniProt Q9NYV4)
T7 construct: purchased ProQinase (Freiburg, Germany)
Description: as §1

[8] = target: T8, LCK (Homo sapiens, UniProt P06239)
T8 construct: purchased ProQinase (Freiburg, Germany)
T8 sequence (P06239 whole entry): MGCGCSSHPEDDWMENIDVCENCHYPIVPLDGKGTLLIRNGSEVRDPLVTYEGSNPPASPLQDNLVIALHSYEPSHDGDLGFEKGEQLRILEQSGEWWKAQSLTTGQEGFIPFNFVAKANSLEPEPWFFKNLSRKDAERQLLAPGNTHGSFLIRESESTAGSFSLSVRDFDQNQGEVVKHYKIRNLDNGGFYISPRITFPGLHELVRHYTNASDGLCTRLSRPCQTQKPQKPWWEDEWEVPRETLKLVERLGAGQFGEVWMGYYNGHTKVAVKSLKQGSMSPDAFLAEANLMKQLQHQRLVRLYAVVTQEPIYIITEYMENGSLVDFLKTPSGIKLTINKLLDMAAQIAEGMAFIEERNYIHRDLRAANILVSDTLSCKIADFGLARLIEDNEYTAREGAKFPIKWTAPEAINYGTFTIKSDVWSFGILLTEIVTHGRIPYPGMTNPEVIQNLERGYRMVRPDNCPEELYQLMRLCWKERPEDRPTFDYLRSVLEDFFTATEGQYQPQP
Description: as §1

[9] = target: T9, SNARK (Homo sapiens, UniProt Q9H093)
T9 construct: purchased ProQinase (Freiburg, Germany)
T9 sequence (Q9H093 1-628): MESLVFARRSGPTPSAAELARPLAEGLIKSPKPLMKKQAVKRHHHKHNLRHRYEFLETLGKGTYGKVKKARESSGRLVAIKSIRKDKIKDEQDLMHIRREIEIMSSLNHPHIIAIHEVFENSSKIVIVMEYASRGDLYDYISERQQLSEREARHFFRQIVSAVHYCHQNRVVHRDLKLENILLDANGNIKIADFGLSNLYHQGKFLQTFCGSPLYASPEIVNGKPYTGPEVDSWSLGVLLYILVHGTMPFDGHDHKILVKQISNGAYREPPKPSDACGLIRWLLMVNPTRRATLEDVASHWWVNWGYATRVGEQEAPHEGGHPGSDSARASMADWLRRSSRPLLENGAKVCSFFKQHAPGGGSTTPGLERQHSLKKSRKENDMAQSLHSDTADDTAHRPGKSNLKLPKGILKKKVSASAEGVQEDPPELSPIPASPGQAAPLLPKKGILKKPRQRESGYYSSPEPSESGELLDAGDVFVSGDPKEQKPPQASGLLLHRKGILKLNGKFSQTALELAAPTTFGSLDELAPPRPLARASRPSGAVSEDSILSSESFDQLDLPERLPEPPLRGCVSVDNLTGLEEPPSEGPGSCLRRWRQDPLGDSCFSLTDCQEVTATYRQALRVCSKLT
Description: as §1

[10] = target: T10, PDGFRbeta (Homo sapiens, UniProt P09619)
T10 construct: purchased ProQinase (Freiburg, Germany)
T10 sequence (P09619 33-1106): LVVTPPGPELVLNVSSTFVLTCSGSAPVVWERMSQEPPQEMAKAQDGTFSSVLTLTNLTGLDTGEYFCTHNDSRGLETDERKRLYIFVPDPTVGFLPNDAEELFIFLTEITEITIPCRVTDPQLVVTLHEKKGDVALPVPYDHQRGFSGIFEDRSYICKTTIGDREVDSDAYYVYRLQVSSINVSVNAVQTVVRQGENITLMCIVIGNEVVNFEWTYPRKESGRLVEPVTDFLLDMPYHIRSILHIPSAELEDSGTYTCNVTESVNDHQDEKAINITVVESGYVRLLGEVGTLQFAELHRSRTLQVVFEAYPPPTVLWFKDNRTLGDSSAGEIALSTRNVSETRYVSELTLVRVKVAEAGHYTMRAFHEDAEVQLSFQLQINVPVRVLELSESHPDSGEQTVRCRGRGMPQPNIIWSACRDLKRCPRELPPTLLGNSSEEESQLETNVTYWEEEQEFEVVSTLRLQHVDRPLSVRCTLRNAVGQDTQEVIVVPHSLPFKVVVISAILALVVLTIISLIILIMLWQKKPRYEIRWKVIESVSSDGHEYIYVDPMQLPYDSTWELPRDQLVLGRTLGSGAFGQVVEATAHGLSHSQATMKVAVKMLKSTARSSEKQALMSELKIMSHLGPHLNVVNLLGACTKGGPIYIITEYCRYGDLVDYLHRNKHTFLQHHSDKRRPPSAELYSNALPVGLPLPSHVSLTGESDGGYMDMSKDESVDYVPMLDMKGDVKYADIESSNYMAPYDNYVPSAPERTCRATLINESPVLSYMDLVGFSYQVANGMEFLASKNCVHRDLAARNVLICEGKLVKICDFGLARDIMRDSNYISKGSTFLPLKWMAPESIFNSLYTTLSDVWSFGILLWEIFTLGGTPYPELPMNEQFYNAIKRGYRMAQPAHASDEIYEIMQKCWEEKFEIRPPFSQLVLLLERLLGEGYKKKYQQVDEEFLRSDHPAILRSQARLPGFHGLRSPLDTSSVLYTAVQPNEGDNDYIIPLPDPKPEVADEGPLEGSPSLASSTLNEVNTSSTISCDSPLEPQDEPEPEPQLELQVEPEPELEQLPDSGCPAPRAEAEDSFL
Description: as §1

[11] = target: T11, GRK5 (Homo sapiens, UniProt P34947)
T11 construct: purchased ProQinase (Freiburg, Germany)
T11 sequence (P34947 whole entry): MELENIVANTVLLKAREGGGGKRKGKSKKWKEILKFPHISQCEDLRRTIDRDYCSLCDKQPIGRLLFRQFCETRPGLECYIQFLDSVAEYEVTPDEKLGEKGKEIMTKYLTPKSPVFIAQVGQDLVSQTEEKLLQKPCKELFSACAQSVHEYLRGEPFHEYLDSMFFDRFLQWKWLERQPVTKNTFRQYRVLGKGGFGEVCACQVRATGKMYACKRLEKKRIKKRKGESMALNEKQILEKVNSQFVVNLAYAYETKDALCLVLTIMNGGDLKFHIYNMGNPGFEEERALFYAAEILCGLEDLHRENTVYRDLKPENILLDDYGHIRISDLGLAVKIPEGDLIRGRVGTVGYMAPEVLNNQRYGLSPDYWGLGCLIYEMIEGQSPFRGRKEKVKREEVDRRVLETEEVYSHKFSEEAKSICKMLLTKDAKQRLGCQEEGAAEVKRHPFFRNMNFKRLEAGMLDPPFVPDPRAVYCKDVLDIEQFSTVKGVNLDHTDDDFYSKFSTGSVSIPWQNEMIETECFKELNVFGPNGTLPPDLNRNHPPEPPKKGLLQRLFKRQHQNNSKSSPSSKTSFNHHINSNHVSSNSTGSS
Description: as §1

[12] = target: T12, JNK3 (Homo sapiens, UniProt P53779)
T12 construct: purchased ProQinase (Freiburg, Germany)
T12 sequence (P53779 whole entry): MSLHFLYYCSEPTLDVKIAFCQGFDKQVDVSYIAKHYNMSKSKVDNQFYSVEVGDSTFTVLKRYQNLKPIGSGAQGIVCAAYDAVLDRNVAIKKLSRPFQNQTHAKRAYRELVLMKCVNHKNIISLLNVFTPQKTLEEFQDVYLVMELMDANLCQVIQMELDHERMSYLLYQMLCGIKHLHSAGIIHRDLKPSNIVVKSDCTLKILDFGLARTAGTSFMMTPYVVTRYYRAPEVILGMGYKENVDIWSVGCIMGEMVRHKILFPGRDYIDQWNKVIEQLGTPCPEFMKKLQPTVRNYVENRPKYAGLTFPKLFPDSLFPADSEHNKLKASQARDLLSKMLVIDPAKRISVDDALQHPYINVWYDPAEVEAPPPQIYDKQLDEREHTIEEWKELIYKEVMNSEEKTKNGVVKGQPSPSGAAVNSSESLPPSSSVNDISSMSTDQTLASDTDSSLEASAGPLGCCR
Description: as §1

[13] = target: T13, PHKG1 (Homo sapiens, UniProt Q16816)
T13 construct: purchased ProQinase (Freiburg, Germany)
T13 sequence (Q16816 whole entry): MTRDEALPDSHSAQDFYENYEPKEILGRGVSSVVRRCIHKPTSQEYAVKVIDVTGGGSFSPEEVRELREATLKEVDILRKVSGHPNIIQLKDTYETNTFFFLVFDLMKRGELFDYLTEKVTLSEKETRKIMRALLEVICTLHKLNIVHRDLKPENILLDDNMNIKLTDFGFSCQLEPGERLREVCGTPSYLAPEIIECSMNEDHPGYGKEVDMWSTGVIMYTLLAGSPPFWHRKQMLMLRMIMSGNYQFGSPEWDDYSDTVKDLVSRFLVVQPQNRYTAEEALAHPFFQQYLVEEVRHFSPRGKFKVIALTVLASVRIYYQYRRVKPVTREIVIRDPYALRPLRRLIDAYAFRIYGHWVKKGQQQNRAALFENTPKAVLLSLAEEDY
Description: as §1

T1 sequence (P07949 29-1114): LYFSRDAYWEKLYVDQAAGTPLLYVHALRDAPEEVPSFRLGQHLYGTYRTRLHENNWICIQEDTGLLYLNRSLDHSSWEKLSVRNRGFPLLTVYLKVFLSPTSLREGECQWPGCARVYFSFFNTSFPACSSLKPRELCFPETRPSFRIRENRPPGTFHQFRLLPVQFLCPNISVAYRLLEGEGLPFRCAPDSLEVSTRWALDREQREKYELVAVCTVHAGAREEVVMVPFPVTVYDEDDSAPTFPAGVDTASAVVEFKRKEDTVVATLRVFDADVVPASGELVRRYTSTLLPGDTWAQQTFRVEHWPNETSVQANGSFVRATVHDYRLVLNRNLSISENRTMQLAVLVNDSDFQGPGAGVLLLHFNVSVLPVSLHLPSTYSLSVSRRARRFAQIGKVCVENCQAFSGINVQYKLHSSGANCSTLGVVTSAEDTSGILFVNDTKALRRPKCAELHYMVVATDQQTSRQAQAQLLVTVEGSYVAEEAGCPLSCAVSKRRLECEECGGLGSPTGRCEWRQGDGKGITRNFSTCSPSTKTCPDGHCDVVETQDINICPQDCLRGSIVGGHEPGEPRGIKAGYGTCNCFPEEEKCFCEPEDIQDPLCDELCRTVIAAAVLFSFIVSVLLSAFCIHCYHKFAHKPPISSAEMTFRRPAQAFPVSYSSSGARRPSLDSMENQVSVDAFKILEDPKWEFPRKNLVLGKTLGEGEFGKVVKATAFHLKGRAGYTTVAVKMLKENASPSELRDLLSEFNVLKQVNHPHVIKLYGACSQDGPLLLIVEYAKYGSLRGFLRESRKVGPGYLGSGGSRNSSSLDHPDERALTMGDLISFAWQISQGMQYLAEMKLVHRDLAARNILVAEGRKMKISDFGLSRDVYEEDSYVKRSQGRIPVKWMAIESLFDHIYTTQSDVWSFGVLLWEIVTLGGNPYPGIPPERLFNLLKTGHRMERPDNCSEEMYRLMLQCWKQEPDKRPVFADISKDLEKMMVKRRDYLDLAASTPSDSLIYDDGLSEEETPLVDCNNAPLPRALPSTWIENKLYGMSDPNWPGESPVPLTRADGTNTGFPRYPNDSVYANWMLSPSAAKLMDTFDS

Row | Compound | Residual activity ([1]; 1.0E-05 M) | Residual activity ([1]; 1.0E-06 M) | Residual activity ([2]; 1.0E-05 M) | Residual activity ([2]; 1.0E-06 M) | Residual activity ([3]; 1.0E-05 M) | Residual activity ([3]; 1.0E-06 M) | Residual activity ([4]; 1.0E-05 M) | Residual activity ([4]; 1.0E-06 M) | Residual activity ([5]; 1.0E-05 M) | Residual activity ([5]; 1.0E-06 M) | Residual activity ([6]; 1.0E-05 M) | Residual activity ([6]; 1.0E-06 M) | Residual activity ([7]; 1.0E-05 M) | Residual activity ([7]; 1.0E-06 M) | Residual activity ([8]; 1.0E-05 M) | Residual activity ([8]; 1.0E-06 M) | Residual activity ([9]; 1.0E-05 M) | Residual activity ([9]; 1.0E-06 M) | Residual activity ([10]; 1.0E-05 M) | Residual activity ([10]; 1.0E-06 M) | further results
1 | O=C(Cc1ccccc1)Nc1ccc(F)c(Nc2ccc3c(c2)CCCCC3=O)c1 [Compound 100] | 70 % of control | 91 % of control | 96 % of control | 120 % of control | 91 % of control | 89 % of control | 118 % of control | 86 % of control | 90 % of control | 101 % of control | 89 % of control | 90 % of control | 100 % of control | 104 % of control | 66 % of control | 107 % of control | 92 % of control | 107 % of control | 99 % of control | 100 % of control | Residual activity ([11]; 1.0E-05 M): 106 % of control; Residual activity ([11]; 1.0E-06 M): 104 % of control; Residual activity ([12]; 1.0E-05 M): 119 % of control; Residual activity ([12]; 1.0E-06 M): 96 % of control; Residual activity ([13]; 1.0E-05 M): 75 % of control; Residual activity ([13]; 1.0E-06 M): 95 % of control
2 | O=C(Nc1ccc(F)c(Nc2ccc3c(c2)CCCCC3=O)c1)c1cccc(F)c1 [Compound 109] | 89 % of control | 95 % of control | 90 % of control | 113 % of control | 92 % of control | 98 % of control | 103 % of control | 93 % of control | 85 % of control | 101 % of control | 102 % of control | 89 % of control | 99 % of control | 105 % of control | 84 % of control | 102 % of control | 98 % of control | 105 % of control | 99 % of control | 98 % of control | Residual activity ([11]; 1.0E-05 M): 103 % of control; Residual activity ([11]; 1.0E-06 M): 102 % of control; Residual activity ([12]; 1.0E-05 M): 92 % of control; Residual activity ([12]; 1.0E-06 M): 83 % of control; Residual activity ([13]; 1.0E-05 M): 86 % of control; Residual activity ([13]; 1.0E-06 M): 96 % of control
